Data as given in patent US20250333398A1, “MONOARYL AND HETARYL SUBSTITUTED INDAZOLES AND BENZIMIDAZOLES AS STING ANTAGONISTS AND THE USE THEREOF AS MEDICAMENT” (Boehringer Ingelheim International GmbH, priority 2024, published 2025).

Assays:
STING [1] = test: IP10 production in human dermal microvascular endothelial cells (MVEC) after double-stranded DNA stimulation; assay type: cell-based; conditions: IP10 production after dsDNA stimulation; rounded average of multiple experiments; read-out: Inhibition of Human microvascular endothelial cells (IC50 nM)
Text: Interferon gamma-induced protein 10 (IP-10) also known as C—X—C motif chemokine ligand 10 (CXCL10) is produced as one of the responses of the presence of double-stranded DNA in the cytoplasm and resulting STING activity. In some diseases, imbalanced STING activation can result to damage in the endothelium, for example in SAVI patients (Liu Yet al. Activated STING in a vascular and pulmonary syndrome. N Engl J Med. 2014 Aug. 7; 371(6):507-518. doi: 10.1056/NEJMoa1312625). To test the efficacy of the inventive STING inhibitors, experiments in human microvascular endothelial cells (HMVEC) are performed with the inventive compounds. Dermal HMVEC are available from Lonza, US. They are cultured in 96 well plates according to the manufacturer's instructions. Using typical protocols, the cells are serum starved and then treated with the compound for 1 hour. The cells are then treated with 400 ng/mL of dsDNA as a complex with Lipofectamine 3000 (from Thermo Fisher Scientific Inc., Waltham, MA, USA) and incubated for 6 hours. The supernatants are collected and assayed for IP10 production.
Detection of IP10 is done using the U-PLEX HUMAN IP-10 ASSAY from Meso Scale Diagnostics (1601 Research Boulevard, Rockville, Maryland 20850-3173, USA) according to manufacturer's protocols.

STING [2] = test system: T1, STING; test: Human whole blood assay (HWBA), cGAMP-stimulated IFNα2α production; assay type: cell-based; conditions: human whole blood stimulated by cGAMP
T1 construct: from tissue; host or cells: human whole blood from healthy donors
Method: For the detection of STING inhibition in physiological environment human whole blood was stimulated by the cyclic dinucleotide cGAMP. Pathway activity was monitored by measuring the IFNα2α production.
Assay method: Compounds were delivered as 10 mM DMSO solution and serial diluted and transferred to the 96-well Cell culture Plate (Corning #3595), prefilled with 20 μl OptiMEM (Gibco #11058-021) in each well, using an Echo acoustic dispenser. Typically, 8 concentrations were used with the highest concentration at 10 μM in the final assay volume followed by ^˜1:5 dilution steps. DMSO concentration was set to 0.1% in the final assay volume. The 96 well assay plate contained 9 test compounds, a reference compound and DMSO in control wells.
Collection of human whole blood from 3 or more healthy donors (male or female, no medication for 7 days, exception contraceptive and thyroxine) as Na-citrate blood (e.g. 3.8% in Monovettes from Sarstedt) is conducted in parallel. Whole blood was kept at room temperature for a maximum of 3 hours after collection until use in the assay.
160 μl of the whole blood samples were transferred to each well of the 96-well assay plates filled with compound/OptiMEM. All assay plates are prepared as duplicates with blood from different donors. Blood plates were kept at room temperature for 60 minutes and continuous shaking with 450 rpm, covered with the lid, but not sealed.
A 10× cGAMP assay solution was diluted from a 2 mM stock solution in 1×HBSS immediately before use at room temperature. 20 μl of the 10× cGAMP/HBSS were added to all compound and all high control wells, whereas HBSS only was added to all low control wells.
After covering assay plates with aera seals and the lid, blood plates were kept at room temperature for 30 minutes and continuous shaking with 450 rpm, followed by an overnight incubation of 22 h at 37° C. in the incubator, without shaking.
For the detection of IFNα-2α in human plasma, the biotinylated capture antibody (Antibody set IFNA2, Meso Scale Diagnostics #B21VH-3, including coating and capture antibody) was diluted 1:17.5 in Diluent 100 (Meso Scale Diagnostics #R50AA-4, according to the manufacturer. U-Plex MSD GOLD 96-well Small Spot Streptavidin SECTOR Plates (Meso Scale Diagnostics #L45SA-5) were coated with 25 μl diluted capture antibody. Coated plates were incubated for 60 min at room temperature under continuous shaking at 700 rpm. MSD IFNα-2α plates were washed three times with 150 μl wash buffer (1×HBSS, 0.05% Tween).
After blocking the plates with 100 μl block solution/well (1×HBSS with 0.2% Tween, 2% BSA) for 60 min at room temperature and continuous shaking at 700 rpm, plates were emptied as dry as possible by dumping just before continuing with the human plasma. Whole Blood assay plates were centrifuged at 1600 rpm for 10 minutes. 25 μl of supernatant was transferred with a pipetting robotics from each whole blood plate to the corresponding IFNα-2α plate. Plates were sealed with microplate seals and kept at room temperature again under continuous shaking at 700 rpm for two hours. Next MSD IFNα-2α plates were washed three times with 150 μl wash buffer (1×HBSS, 0.05% Tween), before adding 25 μl MSD SULFO-TAG IFNα-2α Antibody solution (1:100 diluted in Diluent 3 (Meso Scale Diagnostics #R50AP-2) to each well of the plates. Afterwards plates were sealed with microplate seals and kept at room temperature again under continuous shaking at 700 rpm for two hours. Finally, MSD IFNα-2α plates were washed three times with 150 μl wash buffer (1×HBSS, 0.05% Tween). 150 μl 2× Read buffer was added to each well and plates were immediately measured with the MSD Sector S600 Reader using the vendor barcode.
Data evaluation and calculation: For data evaluation and calculation, % control calculation of each well was based on the mean of high (cGAMP stimulated control) and mean of low (unstimulated control) controls by using the following formula: […]

Structure (SMILES) | IC50 (STING [1]) | IC50 (STING [2])
CC[P@](C)(=O)c1ccc(-c2nc(-c3cccc4nn(-c5cc(C(F)(F)F)n(C)n5)cc34)c(C3CC3)n2C)c(OC(F)(F)F)c1 [Example 10, 4-(5-cyclopropyl-2-{4-[(S)-ethyl(methyl)phosphoryl]-2-(trifluoromethoxy)phenyl}-1-methyl-1H-imidazol-4-yl)-2-[1-methyl-5-(trifluoromethyl)-1H-pyrazol-3-yl]-2H-indazole] | 11 nM | 78 nM
Cn1nc(-n2cc3c(-c4nc(-c5ccc(P(C)(C)=O)cc5OC(F)(F)F)n(C)c4C4CC4)cccc3n2)cc1C(F)(F)F [Example 20, 4-{5-cyclopropyl-2-[4-(dimethylphosphoryl)-2-(trifluoromethoxy)phenyl]-1-methyl-1H-imidazol-4-yl}-2-[1-methyl-5-(trifluoromethyl)-1H-pyrazol-3-yl]-2H-indazole] | 33 nM | 180 nM
